Holding throughout (test): inhibition of tumour cell growth, NCI panel, 48 h
Experiment [1] deals with NCI-H226 lung.
Experiment [2] concerns DMS 273 small cell lung.
In experiment [3] the test system is SF-539 CNS.
The test system of experiment [4] is HCT-116 colon.
For experiment [5], the system named is LOX IMVI melanoma.
Experiment [6] deals with RXF 393 renal.
For experiment [7], the system named is MALME-3M melanoma.
Experiment [8] deals with SW-620 colon.
Experiment [9] relates to HOP-62 NSCLC.
The test system of experiment [10] is NCI-H23 lung.

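A five-concentration, 48-hour dose response in 96-well plates underlies each endpoint, interpolated linearly between surrounding concentrations. The concentration for 50% growth inhibition is given as GI50. The concentration for full growth arrest is given as TGI.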 Bounds are passed on as bounds.

For `CC/C(=C(/CC)c1ccc(OP(=O)([O-])[O-])cc1)c1ccc(OP(=O)([O-])[O-])cc1.N.N.N.N.[Pt+4].[Pt+4]`, the GI50 in experiment [1] was 2.31 µM; in [2], 2.17 µM; in [3], 3.51 µM; in [4], 5.66 µM; in experiment [5], 2.08 µM; in experiment [6], 2.4 µM. Moreover, the GI50 is 2.13 µM in experiment [7], 5.19 µM in experiment [8] and 1.75 µM in [9]. Moreover, the TGI in experiment [1] was 4.96 µM; in experiment [2], 18.9 µM; in experiment [4], greater than 100 µM; in [5], 11.9 µM; in [6] it was 6.76 µM; in experiment [7], 6.02 µM. The TGI is 62.2 µM in [8] and 13.6 µM in experiment [9].

With `Nc1cc2c3c(cccc3c1)C(=O)N(CCN1CCN(CCN3C(=O)c4cccc5cc(N)cc(c45)C3=O)CC1)C2=O`, the TGI in [1], in experiment [2], in experiment [3], in [4], in [6] and in experiment [10] was greater than 100 µM each time. Moreover, the TGI in [7], in experiment [8] and in [9] was greater than 100 µM throughout.

Take `COC(=O)C12C3C=CC(O3)C1C1C=CC2O1` (stereo not given): the TGI in experiment [1], in experiment [2], in [3], in experiment [6], in [10] and in [7] was greater than 100 µM in each case. For the same compound, the TGI in experiment [8] was greater than 100 µM.

With `Cc1ccc(NC(=O)CCC(=O)C2CC(=O)CCC2=O)cc1C` (stereo not given), the TGI in experiment [1], in [2], in experiment [3], in experiment [4], in experiment [5] and in experiment [6] was greater than 100 µM each time. The TGI in experiment [10], in experiment [7], in [8] and in experiment [9] was greater than 100 µM in each case.

`CCOC(=O)C12CN(C34CC5CC(CC(C5)C3)C4)CC(C(=O)OCC)(C1=O)C(c1ccccc1)OC2c1ccccc1` (stereo not given): the TGI in experiment [1], in [2], in experiment [5], in [6], in [10] and in experiment [7] was greater than 100 µM in each case. For the same compound, the TGI in experiment [8] and in experiment [9] was greater than 100 µM throughout.

On to `CC1(C)CC[C@]2(C(=O)O)CCC3(C)C(=CCC4[C@@]5(C)CC[C@H](OC6OCC(O)C(O)C6OC6OC(CO)C(O)C(O)C6O)C(C)(C)C5CC[C@]43C)C2C1` (stereo not given in full), for which the TGI is 3.38 µM in experiment [1]; 3.93 µM in experiment [2]; 4.31 µM in experiment [3]; 7.06 µM in [4]; 4.18 µM in experiment [5]; 3.53 µM in experiment [6]. The TGI in experiment [10] came to 4.2 µM; in experiment [7], 3.54 µM; in experiment [8], 4.03 µM; in [9], 4.16 µM.

As to `COc1cc(-c2[nH]ncc2CCCC(=O)Nc2ccccc2[N+](=O)[O-])ccc1O`, the TGI in [1], in experiment [2], in [3], in [4], in experiment [5] and in experiment [10] was greater than 100 µM throughout. Also, the TGI in experiment [7] was 48.9 µM; in experiment [8] it was greater than 100 µM; in experiment [9] it was greater than 100 µM.

With `COc1ccc(Nc2nc3c(N)cc(C(F)(F)F)cc3nc2-c2ccccc2)cc1`, the TGI in experiment [1] was greater than 100 µM; in experiment [2], greater than 100 µM; in experiment [3], greater than 100 µM; in [4], greater than 100 µM; in [5] it was greater than 100 µM; in experiment [6], 68.2 µM. Further, the TGI in experiment [10], in experiment [7], in experiment [8] and in [9] was greater than 100 µM throughout.

With `CC(=O)OCC1OC(n2cnc3c(I)nc(I)nc32)C(OC(C)=O)C1OC(C)=O` (stereo not given), the TGI is 35.5 µM in experiment [1]; 20.2 µM in experiment [2]; 29.6 µM in experiment [3]; 16.7 µM in experiment [4]; 29.4 µM in experiment [5]; 38.3 µM in [6]. The TGI in experiment [10] turned out to be 16.7 µM; in experiment [7], 33.5 µM; in [8], 28.4 µM; in experiment [9], 34.4 µM.

For the compound `Nc1ccc(C(=O)O)c2[nH]c3ccccc3c(=O)c12`, the TGI in [2], in experiment [3], in experiment [4], in [5], in experiment [6] and in experiment [7] was greater than 100 µM throughout. The TGI in experiment [8] and in [9] was greater than 100 µM throughout.

`CCOc1ccc(NC(=O)/C(=C/c2ccccc2)C(C)=O)cc1`: the TGI in experiment [1] worked out at 32.4 µM; in experiment [2] it was 43.2 µM; in experiment [3], 23.3 µM; in experiment [4] it was 17.5 µM; in [5] it was 25.2 µM; in [6] it was 19 µM. The TGI in experiment [10] was found to be 24.8 µM; in experiment [7], 31.6 µM; in experiment [8] it was 33.2 µM; in experiment [9] it was 30.3 µM.

Turning to `Clc1ccc(C2=NN(c3ccccc3)C3c4cc(Br)ccc4OCC23)cc1` (stereo not given), the TGI in experiment [2], in [3], in [4], in experiment [5], in [6] and in experiment [10] was greater than 100 µM each time. The TGI in experiment [7], in [8] and in experiment [9] was greater than 100 µM throughout.

For the compound `Fc1cccc(C=NC23CC4CC(CC(C4)C2)C3)c1`, the TGI in experiment [1], in experiment [2], in experiment [3], in [4], in experiment [5] and in experiment [6] was greater than 100 µM in each case. In addition, the TGI in experiment [10], in experiment [7] and in [9] was greater than 100 µM in each case.

Regarding `CCOC(=O)C1=C(O)CSC1=Nc1ccc(N=C2SCC(O)=C2C(=O)OCC)cc1`, the TGI in experiment [1] is 44 µM; in [2], 42.8 µM; in [3] it was 43 µM; in [4] it was 35.2 µM; in experiment [5] it was 32.1 µM; in experiment [6], 32.6 µM. For the same compound, the figures for the TGI in experiment [7], in experiment [8] and in experiment [9] were 40.4 µM, 66.6 µM and 65.9 µM, respectively.

The values above are taken from PubChem BioAssay (NCI).
